The numbers were not newly measured in US20240174947A1, “SURFACTANT COMPOSITIONS” (LANKEM LTD., priority 2021, published 2024), which cites them from elsewhere.

The data set has as its system reconstructed human epidermis (RhE). The conditions noted are these: for ET50: typical reference ET50 irritancy results for commonly used anionic and amphoteric surfactants; for Classification (expected in vivo irritancy): typical reference results for commonly used anionic and amphoteric surfactants, assigned from ET50.

Consider `CCCCCCCCCCCCOS(=O)(=O)[O-].[Na+]` [Sodium lauryl sulfate], for which the “ET50” value was 9.37 h and the “Classification (expected in vivo irritancy)” value (shortened to “Classification”) was “Moderate to mild (4-12)”.

In the case of Cocamidopropyl betaine, the “ET50” value is 29.4 h and the “Classification” value is listed as “Non-irritating (>24)”.

For the compound Sodium laureth sulfate, the “ET50” value is 10.25 h and the “Classification” value was “Moderate to mild (4-12)”.
